Source: the supplement of paper PMC11451515

What was measured:
Details in all cases: 48 h
[1] = system: P12-Ichikawa; assay: AUC of viability dose-response curve (% viability x log10 dose units); higher = less sensitive
Procedure, shortened: (§1)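 Leukemia cells adapted to each medium were seeded in 1536-well plates (500 or 1000 cells/well) and given library compounds in DMSO for 48 h at 37°C. The 11 threefold doses spanned 47 μM to 0.79 nM, and CellTiter-Glo One luminescence was normalised per plate to DMSO and cell-free wells before four-parameter log-logistic fitting on log10 dose. Area under the curve was integrated with the trapezoidal rule, scaling curves above full viability and removing curves that failed quality control.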

[2] = system: NOMO1; assay: as above
Procedure, shortened: as §1

[3] = system: SEM cells; assay: as above
Procedure, shortened: as §1

[4] = system: P12-Ichikawa; assay: cell viability relative to DMSO control; higher = less cytotoxic
Procedure, shortened: (§2)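 Viability is expressed as a percentage of DMSO wells within each plate, and cell-free wells serve as background. Seeding densities in the 1536-well plates (5 μl) were 500 cells/well for NOMO1 or SEM leukemia cells and 1000 cells/well for P12-Ichikawa. Each line was adapted for at least four passages in each medium. Library compounds in DMSO were pin-dosed at 47 μM to 0.79 nM (11 points, threefold), and CellTiter-Glo One luminescence was read after 48 h at 37°C.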

[5] = system: NOMO1; assay: as above
Procedure, shortened: as §2

[6] = system: SEM cells; assay: as above
Procedure, shortened: as §2

CC(C)(N)c1ccc(-c2nc3ccccc3nc2-c2ccccc2)cc1
AUC of viability dose-response curve
Details	[1]	[2]	[3]
HPLM + 10% dialyzed FBS	168	177	196
RPMI 5 mM glucose + 10% FBS	224	220	145
RPMI 5 mM glucose + 10% dialyzed FBS	219	241	181

cell viability [%]
Details	[4]	[5]	[6]
HPLM + 10% dialyzed FBS, 0.000781 µM	110	112	99.5
HPLM + 10% dialyzed FBS, 0.00234 µM	114	118	109
HPLM + 10% dialyzed FBS, 0.00702 µM	108	109	117
HPLM + 10% dialyzed FBS, 0.0211 µM	65.8	68.5	100
HPLM + 10% dialyzed FBS, 0.0632 µM	23.2	27.3	38.5
HPLM + 10% dialyzed FBS, 0.19 µM	10.3	22.3	15.5
HPLM + 10% dialyzed FBS, 0.569 µM	7.18	12.2	6.7
HPLM + 10% dialyzed FBS, 1.71 µM	5.6	8.51	6.11
HPLM + 10% dialyzed FBS, 5.12 µM	5.46	7.84	5.5
HPLM + 10% dialyzed FBS, 15.4 µM	4.51	5.77	3.11
HPLM + 10% dialyzed FBS, 46.1 µM	4.37	5.3	3.57
RPMI 5 mM glucose + 10% FBS, 0.000781 µM	96.3	96.1	110
RPMI 5 mM glucose + 10% FBS, 0.00234 µM	120	116	103
RPMI 5 mM glucose + 10% FBS, 0.00702 µM	109	112	93.7
RPMI 5 mM glucose + 10% FBS, 0.0211 µM	111	111	36.2
RPMI 5 mM glucose + 10% FBS, 0.0632 µM	84.4	69.6	12.4
RPMI 5 mM glucose + 10% FBS, 0.19 µM	18.8	14.8	7.19
RPMI 5 mM glucose + 10% FBS, 0.569 µM	10.2	14.1	5.88
RPMI 5 mM glucose + 10% FBS, 1.71 µM	6.88	6.53	5.02
RPMI 5 mM glucose + 10% FBS, 5.12 µM	6.89	11.9	4.24
RPMI 5 mM glucose + 10% FBS, 15.4 µM	4.41	4.8	2.31
RPMI 5 mM glucose + 10% FBS, 46.1 µM	3.11	5.53	3.42
RPMI 5 mM glucose + 10% dialyzed FBS, 0.000781 µM	108	102	99.5
RPMI 5 mM glucose + 10% dialyzed FBS, 0.00234 µM	117	106	106
RPMI 5 mM glucose + 10% dialyzed FBS, 0.00702 µM	111	108	101
RPMI 5 mM glucose + 10% dialyzed FBS, 0.0211 µM	114	113	86.3
RPMI 5 mM glucose + 10% dialyzed FBS, 0.0632 µM	68.8	78.7	17.5
RPMI 5 mM glucose + 10% dialyzed FBS, 0.19 µM	22.3	20.3	10
RPMI 5 mM glucose + 10% dialyzed FBS, 0.569 µM	13.9	27.9	6.06
RPMI 5 mM glucose + 10% dialyzed FBS, 1.71 µM	8.23	13.2	4.9
RPMI 5 mM glucose + 10% dialyzed FBS, 5.12 µM	7.24	19.3	4.26
RPMI 5 mM glucose + 10% dialyzed FBS, 15.4 µM	7.26	6.51	2.44
RPMI 5 mM glucose + 10% dialyzed FBS, 46.1 µM	4.8	8.7	3.2
